Results as given in patent US12428389B2, “Diarylamide compound and application thereof” (Sunshine Lake Pharma Co., Ltd., priority 2019, dated 2025).
Like-named read-outs stand apart in the source and are kept apart here.

Columns and labels:
[1] = molecular target: T1, UT-B (Rattus norvegicus, UniProt P97689); assay: erythrocyte lysis model, rat erythrocytes; type: cell-based, rats; settings: concentration when the erythrocyte lysis rate of rats was 50%; read-out: IC50 rats
T1 construct: endogenous in cells; host or cells: erythrocytes of SD rats
T1 sequence (P97689 1-384): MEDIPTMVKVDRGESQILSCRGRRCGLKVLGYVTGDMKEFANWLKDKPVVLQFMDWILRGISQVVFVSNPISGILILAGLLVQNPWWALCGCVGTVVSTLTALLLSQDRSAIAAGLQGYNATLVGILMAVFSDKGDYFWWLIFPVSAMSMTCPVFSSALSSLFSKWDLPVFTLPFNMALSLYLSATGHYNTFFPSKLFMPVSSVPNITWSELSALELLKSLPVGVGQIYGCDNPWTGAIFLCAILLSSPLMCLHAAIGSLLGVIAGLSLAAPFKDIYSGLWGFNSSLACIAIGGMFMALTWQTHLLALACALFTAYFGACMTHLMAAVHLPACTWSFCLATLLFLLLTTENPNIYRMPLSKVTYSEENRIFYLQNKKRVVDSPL
Procedure: (§1) Erythrocyte lysis rate was calculated:
(§2) The formula for calculating the lysis rate percentage of erythrocytes, wherein Atest was the absorbance value of the test well, Aneg was the absorbance value of the negative control well, and Apos was the absorbance value of the positive control well. Erythrocyte lysis rate was calculated by measuring absorption at a wavelength of 710 nm.
(§3) The erythrocytes of three species of human, rats (SD rats) and mice (C57 mice) were taken, and urea transporter inhibitors were preliminarily screened from the above screening compound library by using the erythrocyte urea transporter inhibitor screening model.

[2] = molecular target: T2, UT-B (Mus musculus, UniProt Q8VHL0); assay: erythrocyte lysis model, mouse erythrocytes; type: cell-based; settings: concentration when the erythrocyte lysis rate of mice was 50%
T2 construct: endogenous in cells; host or cells: erythrocytes of C57 mice
T2 sequence (Q8VHL0 1-384): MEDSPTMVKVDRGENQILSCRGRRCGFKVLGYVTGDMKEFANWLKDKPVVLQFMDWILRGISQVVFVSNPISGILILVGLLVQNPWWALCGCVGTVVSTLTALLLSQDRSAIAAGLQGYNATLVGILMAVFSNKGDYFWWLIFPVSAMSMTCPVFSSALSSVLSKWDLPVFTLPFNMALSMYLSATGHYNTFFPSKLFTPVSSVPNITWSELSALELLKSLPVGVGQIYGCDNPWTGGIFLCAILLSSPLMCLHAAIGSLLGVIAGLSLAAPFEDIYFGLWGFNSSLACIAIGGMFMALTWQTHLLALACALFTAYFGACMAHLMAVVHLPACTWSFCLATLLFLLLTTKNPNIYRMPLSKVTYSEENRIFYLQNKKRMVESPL
Procedure: as §1, §2, §3

[3] = molecular target: T3, human UT-B (Homo sapiens, UniProt Q13336); assay: erythrocyte lysis model, human erythrocytes; type: cell-based
T3 construct: endogenous in cells; host or cells: human erythrocytes
T3 sequence (Q13336 1-389): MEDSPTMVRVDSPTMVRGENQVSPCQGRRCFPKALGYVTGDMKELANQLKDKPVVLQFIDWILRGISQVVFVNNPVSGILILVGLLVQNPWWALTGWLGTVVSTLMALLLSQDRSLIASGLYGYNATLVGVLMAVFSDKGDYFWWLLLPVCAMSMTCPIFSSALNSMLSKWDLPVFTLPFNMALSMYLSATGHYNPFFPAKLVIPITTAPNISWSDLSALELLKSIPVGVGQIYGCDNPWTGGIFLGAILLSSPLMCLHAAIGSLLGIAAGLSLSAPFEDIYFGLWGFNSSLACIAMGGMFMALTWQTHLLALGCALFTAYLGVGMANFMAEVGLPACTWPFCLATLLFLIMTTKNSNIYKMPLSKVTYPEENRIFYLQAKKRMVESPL
Procedure: as §1, §2, §3

[4] = class of the IC50 to human UT-B, read-out: Activity level
[5] = concentration when the erythrocyte lysis rate of human was 50%, read-out: IC50 human

Row | Molecule | IC50 [1] [nM] | IC50 [2] [nM] | IC50 [3, 4] [nM] | IC50 [3, 5] [nM]
1 | N-(4-fluoro-3-methylcarbomoylphenyl)-5-nitrofuran-2-carboxamide [Example 65] | 18300 | 4380 | 20000 to 80000 | 23900
2 | CNC(=O)c1cc(C)cc(NC(=O)c2ccc([N+](=O)[O-])o2)c1 [Example 64, N-(5-methyl-3-methylcarbamoylphenyl)-5-nitrofuran-2-carboxamide] | 320 | 2790 | < 10000 | 1080
3 | Cc1cccc(NC(=O)c2ccc([N+](=O)[O-])o2)c1 [Example 28, N-(3-methylphenyl)-5-nitrofuran-2-carboxamide] | 3910 | 30500 | < 10000 | 3660
4 | CN(C)C(=O)c1cccc(NC(=O)c2ccc([N+](=O)[O-])o2)c1 [Example 54, N-(3-(dimethylcarbamoyl)phenyl)-5-nitrofuran-2-carboxamide] | 200 | 310 | < 10000 | 740
5 | O=C(NCc1ccccc1)c1cccc(NC(=O)c2ccc([N+](=O)[O-])o2)c1 [Example 59, N-(3-(benzylcarbamoyl)phenyl)-5-nitrofuran-2-carboxamide] | 260 | 1020 | < 10000 | 490
6 | CN1C(=O)c2ccc(NC(=O)c3ccc([N+](=O)[O-])o3)cc2C1=O [Example 69, N-(2-methyl-1,3-dihydro-1,3-dioxo-2H-isoindol-5-yl)-5-nitrofuran-2-carboxamide] | 2960 | 5160 | 10000 to 20000 | 12300
7 | CNC(=O)c1cccc(NC(=O)c2ccc([N+](=O)[O-])o2)c1 [Example 53, N-(3-(methylcarbamoyl)phenyl)-5-nitrofuran-2-carboxamide] | 15 | 290 | < 10000 | 23
8 | COc1cccc(NC(=O)c2ccc([N+](=O)[O-])o2)c1 [Example 30, N-(3-methoxyphenyl)-5-nitrofuran-2-carboxamide] | 1110 | 9650 | < 10000 | 2270
9 | CN(C)CCNC(=O)c1cccc(NC(=O)c2ccc([N+](=O)[O-])o2)c1 [Example 60, N-(3-((2-dimethylaminoethyl)carbamoyl)phenyl)-5-nitrofuran-2-carboxamide] | 210 | 740 | < 10000 | 3680
10 | O=C(Nc1cccc(Cl)c1)c1ccc([N+](=O)[O-])o1 [Example 38, N-(3-chlorophenyl)-5-nitrofuran-2-carboxamide] | 1050 | 5810 | < 10000 | 2910
11 | Cn1ccc(NC(=O)c2ccc([N+](=O)[O-])o2)n1 [Example 21, N-(1-methyl-1H-pyrazol-3-yl)-5-nitrofuran-2-carboxamide] | 1100 | 8510 | < 10000 | 2210
12 | ethyl 2-acetamido-5-(5-nitrofuran-2-carboxamide) benzoate [Example 75] | 4810 | 6390 | < 10000 | 370
13 | CN(C)CCNCC(=O)Nc1ccc(NC(=O)c2ccc([N+](=O)[O-])o2)cc1 [Example 74, N-(4-((2-dimethylamino)ethylamino)acetamidophenyl)-5-nitrofuran-2-carboxamide] | 1240 | 9590 | < 10000 | 3010
14 | NCc1ccc(NC(=O)c2ccc([N+](=O)[O-])o2)cc1 [Example 51, N-(4-aminomethylphenyl)-5-nitrofuran-2-carboxamide] | 490 | 1690 | < 10000 | 940
15 | CCOC(=O)c1cccc(NC(=O)c2ccc([N+](=O)[O-])o2)c1 [Example 42, Ethyl 3-(5-nitrofuran-2-carboxamido)benzoate] | 450 | 2300 | < 10000 | 470
16 | O=C(NC1CCCCC1)c1cccc(NC(=O)c2ccc([N+](=O)[O-])o2)c1 [Example 58, N-(3-(cyclohexylcarbamoyl)phenyl)-5-nitrofuran-2-carboxamide] | 900 | 2630 | < 10000 | 1770
17 | CC(=O)Nc1ccc(NC(=O)c2ccc([N+](=O)[O-])s2)cc1 [Example 9, N-(4-acetamidophenyl)-5-nitrothiophene-2-carboxamide] | 20100 | 18700 | < 10000 | 2530
18 | CCNC(=O)c1cccc(NC(=O)c2ccc([N+](=O)[O-])o2)c1 [Example 55, N-(3-(ethylcarbamoyl)phenyl)-5-nitrofuran-2-carboxamide] | 1210 | 5410 | < 10000 | 880
19 | NC(=O)c1cccc(NC(=O)c2ccc([N+](=O)[O-])o2)c1 [Example 44, N-(3-carbamoylphenyl)-5-nitrofuran-2-carboxamide] | 170 | 500 | < 10000 | 420
